How the values were obtained:
[1] = adults with leukemia, with mitoxantrone, etoposide, cytarabine; cited from earlier work
[2] = not given; remark: listed apart in the source
[3] = Valspodar blood concentrations by radioimmunoassay; assay type: in vivo, pediatric patients; conditions: at some point during the infusion
[4] = during valspodar infusion, resolved after completion, all dose levels

SMILES	decrease of clearance when combined with valspodar (day 4 with valspodar versus day 1 pre-valspodar) [%]	CL0 (baseline clearance) (in vivo) [L/h]	Q (inter-compartmental clearance) (in vivo) [L/h]	V1 (volume of the central compartment) (in vivo) [L]	V2 (volume in the peripheral compartment) (in vivo) [L]	maximum tolerated dose (MTD) in adults [1] [mg/kg/day]	patients with cerebellar toxicity (ataxia or dizziness) ([2]; all dose levels, 21 evaluable, one grade 3, two grade 2, two grade 1)	patients with transient hyperbilirubinemia ([2]; all dose levels, evaluable for toxicity)	transient hyperbilirubinemia, median maximum [2, 4] [mg/dL]	transient hyperbilirubinemia, range of maximum [2, 4] [mg/dL]	patients with valspodar infusion-related transaminase elevations ([2]; one grade 1, two grade 2, one grade 3, self-resolved)	valspodar concentration achieved in all patients [3]
COc1cc([C@@H]2c3cc4c(cc3[C@@H](O[C@@H]3O[C@@H]5CO[C@@H](C)O[C@H]5[C@H](O)[C@H]3O)[C@H]3COC(=O)[C@H]23)OCO4)cc(OC)c1O [etoposide]	60	1.52	2.38	3.58	3.82	–	–	–	–	–	–	–
O=C1c2c(O)ccc(O)c2C(=O)c2c(NCCNCCO)ccc(NCCNCCO)c21 [mitoxantrone]	–	16.4	8.13	–	–	–	–	–	–	–	–	–
C/C=C/C[C@@H](C)C(=O)[C@H]1C(=O)N[C@@H](C(C)C)C(=O)N(C)CC(=O)N(C)[C@@H](CC(C)C)C(=O)N[C@@H](C(C)C)C(=O)N(C)[C@@H](CC(C)C)C(=O)N[C@@H](C)C(=O)N[C@H](C)C(=O)N(C)[C@@H](CC(C)C)C(=O)N(C)[C@@H](CC(C)C)C(=O)N(C)[C@@H](C(C)C)C(=O)N1C [valspodar, Valspodar]	–	–	–	–	–	10	five	16 of 21	2	0.8 to 6.6	Four	1,000 ng/mL
